Results from US7030107B2, “Fused bicyclic pyridine derivatives as tachykinin receptor antagonists” (Kyorin Pharmaceutical.Co., Ltd., priority 2001, dated 2006).

Assays:
NK1 receptor = biological target: T1, NK1 receptor (Cavia porcellus, UniProt P30547); assay: Test for NK1 receptor antagonist: substance P concentration-response in isolated guinea pig ileum, Schild analysis; format: cell-based; settings: antagonism of substance P, 10 min pretreatment, Schild method
T1 construct: from tissue; host or cells: isolated guinea pig ileum
T1 sequence (P30547 whole entry): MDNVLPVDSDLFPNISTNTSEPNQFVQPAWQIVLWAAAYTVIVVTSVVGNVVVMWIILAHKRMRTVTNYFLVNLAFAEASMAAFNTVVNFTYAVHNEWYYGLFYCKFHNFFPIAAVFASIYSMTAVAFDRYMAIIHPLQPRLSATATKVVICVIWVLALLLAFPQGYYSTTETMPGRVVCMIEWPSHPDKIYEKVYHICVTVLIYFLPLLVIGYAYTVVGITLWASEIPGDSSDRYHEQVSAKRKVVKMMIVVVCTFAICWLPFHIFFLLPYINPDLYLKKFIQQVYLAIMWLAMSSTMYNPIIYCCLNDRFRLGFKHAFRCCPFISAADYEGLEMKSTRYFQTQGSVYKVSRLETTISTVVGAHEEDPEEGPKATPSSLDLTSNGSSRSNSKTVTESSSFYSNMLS
Procedure: (1) Test for NK1 Receptor Antagonist
The method used was according to the method proposed by S. Dion et al. (Dion et al., Life Sciences 41 (1987): 2269), to which minor modifications were made.
Guinea pigs were stunned by a blow on the head and were exsanguinated from the carotid artery and ileum was isolated. The ileum was mounted in an organ bath containing Tyrode's solution which was maintained at 32° C. and gased with 95% O2 and 5% CO2. The ileum was subjected to a resting tension of 1-gram and allowed to equilibrate for 20 minutes before the experiment was started. As a control, a concentration-response curve for substance P obtained in the absence of test compounds was used. The NK1 receptor antagonist activity of each test compound was determined by a concentration-response curve obtained by pretreating at least three concentrations of the test compound for 10 minutes and subsequently applying substance P in a cumulative manner. The Kb values were determined according to the method proposed by Schild and the results are shown in Table 1 (Schild Brit. J. Pharmacol. 14 (1959): 49).
The composition of the Tyrode's solution was as follows: NaCl=136.9, KCl=2.7, CaCl2.2H2O=2.5, MgCl2.6H2O=1.0, NaH2PO4.2H2O=0.4, NaHCO3=11.9, glucose=11.1 (mmol/L)

Guinea pigs = assay: Cystometry test on guinea pigs with cut spinal cord (effective bladder capacity); format: in vivo; settings: guinea pig
From the text: (2) Cystometry Test on Guinea Pigs
The method used was according to the method proposed by J S. Peterson et al. (Peterson J S. et al., J. Pharmacol. Methods 21 (1989): 231), to which minor modifications were made.
Guinea pigs were anesthetized with halothane and the tenth thoracic spinal cord was cut in each animal. Subsequently, both ureters were ligated and were cut on the kidney-side. Polyethylene catheters were inserted into the bladder to provide an injection pathway for physiological saline and a pathway for the measurement of intravesical pressure. Each animal was restricted in a Ballman cage and was left for more than 2 hours. Subsequently, room-temperature saline was injected through the bladder catheter into the bladder at a rate of 6 mL/hr to conduct a cystometry test. After the effective bladder capacity was stabilized, a test compound was intravenously administered from the jugular vein. The effective bladder capacity is defined as the volume of saline injected from one urination to the next. The effect of each test compound was determined as the increase in the average bladder volume, which was determined by taking difference between the average bladder volume measured 30 minutes prior to the administration of the test compound and the average bladder volume measured every 30 minutes after the administration of the test compound.

Kb (NK1 receptor) [nM] | SMILES | Increase in bladder capacity (Guinea pigs; 0.3 mg/kg i.v.) [%] | Increase in bladder capacity (Guinea pigs; 1 mg/kg i.v.) [%] | Increase in bladder capacity (Guinea pigs; 3 mg/kg i.v.) [%]
0.224 | O=C1c2c(-c3ccccc3)cc(N3CCC(N4CCCC4)CC3)nc2OCCCN1Cc1cc(C(F)(F)F)cc(C(F)(F)F)c1 [Example 1, 5-[3,5-bis(trifluoromethyl)benzyl]-6-oxo-7-phenyl-9-[4-(pyrrolidine-1-yl)piperidine-1-yl]-2,3,4,5-tetrahydro-6H-pyrido[2,3-b][1,5]oxazocine] |  |  | 
0.148 | O=C1c2c(-c3ccc(F)cc3)cc(N3CCC(N4CCCC4)CC3)nc2OCCCN1Cc1cc(C(F)(F)F)cc(C(F)(F)F)c1 [Example 4, 5-[3,5-bis(trifluoromethyl)benzyl]-7-(4-fluorophenyl)-6-oxo-9-[4-(pyrrolidine-1-yl)piperidine-1-yl]-2,3,4,5-tetrahydro-6H-pyrido[2,3-b][1,5]oxazocine] |  |  | 
0.21 | Cc1ccccc1-c1cc(N2CCC(N3CCCC3)CC2)nc2c1C(=O)N(Cc1cc(C(F)(F)F)cc(C(F)(F)F)c1)CCCO2 [Example 7, 5-[3,5-bis(trifluoromethyl)benzyl]-7-(2-methylphenyl)-6-oxo-9-[4-(pyrrolidine-1-yl)piperidine-1-yl]-2,3,4,5-tetrahydro-6H-pyrido[2,3-b][1,5]oxazocine] | 24.2 | 46.0 | 
0.275 | Cc1ccccc1-c1cc(N2CCC(N(C)C)CC2)nc2c1C(=O)N(Cc1cc(C(F)(F)F)cc(C(F)(F)F)c1)CCCO2 [Example 8, 5-[3,5-bis(trifluoromethyl)benzyl]-9-[4-(dimethylamino)piperidine-1-yl]-7-(2-methylphenyl)-6-oxo-2,3,4,5-tetrahydro-6H-pyrido[2,3-b][1,5]oxazocine] |  |  | 
0.0848 | Cc1ccccc1-c1cc(N2CCC(N3CCOCC3)CC2)nc2c1C(=O)N(Cc1cc(C(F)(F)F)cc(C(F)(F)F)c1)CCCO2 [Example 9, 5-[3,5-bis(trifluoromethyl)benzyl]-7-(2-methylphenyl)-9-[4-(morpholine-4-yl)piperidine-1-yl]-6-oxo-2,3,4,5-tetrahydro-6H-pyrido[2,3-b][1,5]oxazocine] |  |  | 
0.286 | Cc1ccccc1-c1cc(N2CCC(N3CCCC3=O)CC2)nc2c1C(=O)N(Cc1cc(C(F)(F)F)cc(C(F)(F)F)c1)CCCO2 [Example 10, 5-[3,5-bis(trifluoromethyl)benzyl]-7-(2-methylphenyl)-6-oxo-9-[4-(2-oxopyrrolidine-1-yl)piperidine-1-yl]-2,3,4,5-tetrahydro-6H-pyrido[2,3-b][1,5]oxazocine] |  |  | 
0.17 | CC(=O)NC1CCN(c2cc(-c3ccccc3C)c3c(n2)OCCCN(Cc2cc(C(F)(F)F)cc(C(F)(F)F)c2)C3=O)CC1 [Example 13, 9-[4-(acetylamino)piperidine-1-yl]-5-[3,5-bis(trifluoromethyl)benzyl]-7-(2-methylphenyl)-6-oxo-2,3,4,5-tetrahydro-6H-pyrido[2,3-b][1,5]oxazocine] |  |  | 
 | Cc1ccc(-c2c3n(c(=O)c4ncccc24)CC[C@@H](C)CN(Cc2cc(C(F)(F)F)cc(C(F)(F)F)c2)C3=O)cc1 [TAK-637] | 12.0 | 23.8 | 20.5
